Earlier results on 1 compound are cited in patent publication US8038645B2 (Bayer Technology Services GmbH, priority 2005, dated 2011).

Read-outs that look alike come from different tables or passages of the source.

The conditions of series [1]: input parameter for PK-Sim.
For series [2] the following is noted: input parameter for PK-Sim. This is another data set of the same source.

Turning to `CC(C)c1cccc(C(C)C)c1O` [propofol], the “Blood clearance in ml/min: mean (std. dev.)” value (shortened to “Blood clearance in ml/min”) (Ickz et al., adults, mean age 45.2 years, 21 mg/kg/h for 5 min, then 12 mg/kg/h for 10 min, then 6 mg/kg/h) was 33.8 (7.8) ml/min; the “Blood clearance in ml/min” value (Kanto et al., pregnant women, mean age 27.1 years, 2.5 mg/kg bolus over 0.17 min) is on record as 27.5 (5.5) ml/min; the “Blood clearance in ml/min” value (Mertens et al., young men, mean age 24 years, 1 mg/kg bolus over 1 min, then 3 mg/kg/h) is on record as 31.2 (2.8) ml/min; the “Blood clearance in ml/min” value (Raoof et al., children, mean age 1.9 years, 3 mg/kg iv) is recorded as 38.7 (6.8) ml/min; the “Blood clearance in ml/min” value (Saint-Maurice et al., children, mean age 5.5 years, 2.5 mg/kg bolus over 0.33 min) is listed as 30.6 (2.9) ml/min; the “Blood clearance in ml/min” value (Valtonen et al., children, mean age 6.5 years, 2.5 mg/kg bolus over 0.5 min) was 32.0 (16.8) ml/min. In addition, the “Clearance (age-dependent)” value (input parameter for PK-Sim) was 29 to 50 mL/min/kg. Besides, the Lipophilicity in series [1] is listed as 2.6. Moreover, the “Free plasma fraction (age-dependent)” value in series [2] is on record as 0.020-0.025.
